Laboratory results published in article PMC6151961 (Journal of Enzyme Inhibition and Medicinal Chemistry, 2018).

Target: T1, CA IX (Homo sapiens, UniProt Q16790)
Assay: biochemical
Settings: not given
In the case of `NS(=O)(=O)c1ccc(C(=O)NNC(=O)Nc2ccc([N+](=O)[O-])cc2)cc1` [A0170], the “log10 of Ki in nM” value is reported as 0.505.
In the case of `NS(=O)(=O)c1ccc(OCc2ccc(F)cc2)cc1` [A0463], the “log10 of Ki in nM” value is reported as 0.869.
With `NS(=O)(=O)c1ccc(CNC(=S)N[C@@H]2O[C@H](CO)[C@@H](O)[C@H](O)[C@H]2O)cc1` [A0577] the “log10 of Ki in nM” value was 0.944.
In the case of `CCOc1nc(NCCc2ccc(S(N)(=O)=O)cc2)nc(OCC)n1` [A0719], the “log10 of Ki in nM” value is reported as 1.079.
In the case of `Nc1c(C(=O)N/N=C2\C(=O)N(Cc3ccccc3)c3ccccc32)cnn1-c1ccc(S(N)(=O)=O)cc1` [A0861], the “log10 of Ki in nM” value is reported as 1.301.
For `Nc1c(Cl)cc(S(=O)(=O)Nc2nnc(S(N)(=O)=O)s2)cc1Br` [A0922], the “log10 of Ki in nM” value was 1.362.
For `NS(=O)(=O)c1ccc(-c2cn([C@@H]3O[C@H](CO)[C@@H](O)[C@H](O)[C@H]3O)nn2)cc1` [A1466], the “log10 of Ki in nM” value was 1.897.
With `NS(=O)(=O)c1ccc(-c2cccc(C=O)c2)cc1` [A1584] the “log10 of Ki in nM” value was 1.993.

Same assay, conditions: experimental value from the library Ki (IDs A…, B…); values equal log10 of Ki in nM
With `NS(=O)(=O)c1ccc(NCc2cc(Br)ccc2O)cc1` [A0114] the “log10 of Ki in nM” value was 0.415.
With `NS(=O)(=O)c1nnc(NS(=O)(=O)c2ccc(NC(=O)CCC(=O)O)cc2)s1` [A0151] the “log10 of Ki in nM” value was 0.477.
In the case of `NS(=O)(=O)c1ccc(CNC(=O)Cc2ccc(F)cc2)cc1` [A0160], the “log10 of Ki in nM” value is reported as 0.491.
For `Nc1nc(N)c2nc(CNCCc3ccc(S(N)(=O)=O)cc3)cnc2n1` [A0285], the “log10 of Ki in nM” value was 0.672.
For `NS(=O)(=O)c1ccc(CNS(=O)(=O)c2ccc(NC(=O)c3c(F)c(F)cc(F)c3F)cc2)cc1` [A0340], the “log10 of Ki in nM” value was 0.740.
In the case of `O=S1(=O)C=Cc2cc(-c3nnnn3-c3cccc4ccccc34)ccc2O1` [A0400], the “log10 of Ki in nM” value is reported as 0.813.
In the case of `COc1ccc(C2=Nn3c(nnc3-c3ccc(S(N)(=O)=O)cc3)SC2)cc1` [A0402], the “log10 of Ki in nM” value is reported as 0.813.
In the case of `CN(C)c1ccc(/N=N/c2ccc(S(N)(=O)=O)cc2)cc1` [A0408], the “log10 of Ki in nM” value is reported as 0.820.
With `NS(=O)(=O)c1ccc(NC(=S)N[C@@H]2O[C@H](CO)[C@H](O)[C@H](O)[C@H]2O)cc1` [A0430] the “log10 of Ki in nM” value was 0.845.
For `COc1cc(OC)c(/C=C(\C#N)C(=O)Nc2ccc(S(N)(=O)=O)cc2)c(OC)c1` [A0495], the “log10 of Ki in nM” value was 0.892.
In the case of `Cc1ccc2c(n1)SCc1cnc(Nc3ccc(S(N)(=O)=O)cc3)nc1-2` [A0518], the “log10 of Ki in nM” value is reported as 0.908.
In the case of `COC(=O)c1cn(-c2ccc(S(N)(=O)=O)cc2)nc1-c1ccc(F)cc1` [A0626], the “log10 of Ki in nM” value is reported as 0.973.
In the case of `N#C/C(=C\c1ccc2c(c1)OCO2)C(=O)Nc1ccc(S(N)(=O)=O)cc1` [A0636], the “log10 of Ki in nM” value is reported as 0.978.
For `O=C1c2ccccc2S(=O)(=O)N1Cc1cccc([N+](=O)[O-])c1` [A0700], the “log10 of Ki in nM” value was 1.041.
With `NS(=O)(=O)c1ccc(C(=O)NCCc2ccc(O)c(O)c2)cc1` [A0813] the “log10 of Ki in nM” value was 1.230.
With `NS(=O)(=O)c1cnccc1-n1ccc(=O)cc1` [A0836] the “log10 of Ki in nM” value was 1.262.
For `COc1ccc(-c2cc(CO)nn2-c2ccc(S(N)(=O)=O)cc2)cc1` [A0859], the “log10 of Ki in nM” value was 1.301.
In the case of `Cc1ccc(-c2cc(CO)nn2-c2ccc(S(N)(=O)=O)cc2)cc1` [A0902], the “log10 of Ki in nM” value is reported as 1.342.
In the case of `O=c1ccc2ccc(OCc3cn(-c4ccc(C(F)(F)F)cc4)nn3)cc2o1` [A0920], the “log10 of Ki in nM” value is reported as 1.362.
With `CCCN(CCC)S(=O)(=O)c1ccc(C(=O)N[C@@H](CCC(=O)O)C(N)=O)cc1` [A0921] the “log10 of Ki in nM” value was 1.362.
With `CCCN(CCC)S(=O)(=O)c1ccc(C(=O)N[C@@H](Cc2c[nH]c3ccccc23)C(N)=O)cc1` [A0923] the “log10 of Ki in nM” value was 1.362.
For `CCOC(=O)NC(=S)N(CC(=O)c1ccccc1)c1ccc(S(N)(=O)=O)cc1` [A0977], the “log10 of Ki in nM” value was 1.398.
In the case of `COc1ccc(-c2cn(-c3ccc(S(N)(=O)=O)cc3)c(=S)[nH]2)cc1` [A1063], the “log10 of Ki in nM” value is reported as 1.477.
In the case of `Cc1ccc(-c2nn(-c3ccc(S(N)(=O)=O)cc3)cc2-c2nc3ccccc3[nH]2)cc1` [A1267], the “log10 of Ki in nM” value is reported as 1.693.
In the case of `NS(=O)(=O)Nc1ccc(S(=O)(=O)Nc2nnc(S(N)(=O)=O)s2)cc1` [A1288], the “log10 of Ki in nM” value is reported as 1.716.

Same assay, conditions: experimental value used for the QSPR model, library compounds (IDs A…, B…); equals log10 of Ki in nM
With `NS(=O)(=O)c1ccc(CCNCc2cc(Cl)cc(Cl)c2O)cc1` [A0260] the “log10 of Ki in nM” value was 0.613.
For `NS(=O)(=O)c1ccc(-n2c(S)nc3cc(F)ccc3c2=O)cc1` [A0315], the “log10 of Ki in nM” value was 0.708.
In the case of `Cc1cccc(Nc2nc(Cl)nc(Nc3ccc(S(N)(=O)=O)cc3)n2)c1` [A0317], the “log10 of Ki in nM” value is reported as 0.708.
For `CC(C)(C)OC(=O)NCCCCOc1ccc(S(N)(=O)=O)cc1` [A0486], the “log10 of Ki in nM” value was 0.886.
For `C#CCOc1ccc(S(N)(=O)=O)cc1` [A0523], the “log10 of Ki in nM” value was 0.914.
With `NS(=O)(=O)c1ccc(CCNC(=S)Nc2ccc(C(=O)O)cc2)cc1` [A0666] the “log10 of Ki in nM” value was 1.000.
In the case of `NS(=O)(=O)c1ccc(OCCN2CCOCC2)cc1` [A0728], the “log10 of Ki in nM” value is reported as 1.100.
For `NS(=O)(=O)c1ccc(Nc2nc(Nc3ccccc3)nc(N3CCOCC3)n2)cc1` [A0867], the “log10 of Ki in nM” value was 1.303.
With `NS(=O)(=O)c1ccc(/N=C/c2ccccc2)c(F)c1` [A1026] the “log10 of Ki in nM” value was 1.447.
With `CCCC(=O)OC[C@H]1O[C@@H](n2cc(-c3ccc(S(N)(=O)=O)cc3)nn2)[C@H](OC(=O)CCC)[C@@H](OC(=O)CCC)[C@H]1OC(=O)CCC` [A1285] the “log10 of Ki in nM” value was 1.714.
In the case of `O=S1(=O)C=Cc2cc(-n3cc(C4CC4)nn3)ccc2O1` [A1333], the “log10 of Ki in nM” value is reported as 1.782.
In the case of `O=S1(=O)C=Cc2cc(-n3cnnn3)ccc2O1` [A1395], the “log10 of Ki in nM” value is reported as 1.836.
With `CC(=O)OC[C@H]1O[C@@H](SCc2nnn(-c3ccc(S(N)(=O)=O)cc3)c2C#CCO)[C@H](OC(C)=O)[C@@H](OC(C)=O)[C@@H]1OC(C)=O` [A1422] the “log10 of Ki in nM” value was 1.857.
For `NS(=O)(=O)c1cccc(-c2cn([C@@H]3O[C@H](CO)[C@@H](O)[C@H](O)[C@H]3O)nn2)c1` [A1463], the “log10 of Ki in nM” value was 1.893.
In the case of `CC(C)(F)CNS(=O)(=O)c1ccc(N)cc1` [A1490], the “log10 of Ki in nM” value is reported as 1.919.
In the case of `Cc1c(C(=O)NCCN(C)C)cc(-c2ccc(-c3ccccc3)cc2)n1-c1ccc(S(N)(=O)=O)cc1` [A1493], the “log10 of Ki in nM” value is reported as 1.919.
For `Nc1c(Br)cc(S(N)(=O)=O)cc1I` [A1512], the “log10 of Ki in nM” value was 1.934.
For `Cc1cc(C)c(S(=O)(=O)Nc2ccc(C3C4=C(CC(C)(C)CC4=O)N(c4ccc(S(N)(=O)=O)cc4)C4=C3C(=O)CC(C)(C)C4)cc2)c(C)c1` [A1534], the “log10 of Ki in nM” value was 1.954.
In the case of `N#Cc1c(-c2ccc(Br)cc2)cn(-c2ccc(S(N)(=O)=O)cc2)c1NC(=S)Nc1ccc(Br)cc1` [A1551], the “log10 of Ki in nM” value is reported as 1.960.

Same assay, conditions: library compounds with IDs A… and B…; from observed Ki (nM)
For `Nc1cc(Nc2ccc(S(N)(=O)=O)cc2)nc(N)n1` [A0250], the “log10 of Ki in nM” value was 0.591.
With `NS(=O)(=O)c1ccc(NC(=O)c2ccc(/N=C3\C(=O)Nc4ccc(F)cc43)cc2)cc1` [A0310] the “log10 of Ki in nM” value was 0.699.
For `CCOC(=O)c1ccc(NC(=O)NNC(=O)c2ccc(S(N)(=O)=O)cc2)cc1` [A0551], the “log10 of Ki in nM” value was 0.929.
In the case of `O=S1(=O)C=Cc2cc(-n3cc(-c4cccc(F)c4)nn3)ccc2O1` [A0598], the “log10 of Ki in nM” value is reported as 0.954.
With `O=S1(=O)C=Cc2cc(-n3nncc3-c3cccc(C(F)(F)F)c3)ccc2O1` [A0646] the “log10 of Ki in nM” value was 0.982.
In the case of `NS(=O)(=O)OC1CCN(S(=O)(=O)[C@@H]2O[C@H](CO)[C@@H](O)[C@H](O)[C@H]2O)CC1` [A0701], the “log10 of Ki in nM” value is reported as 1.041.
In the case of `NS(=O)(=O)c1ccc(-n2cc(-c3ccc(Br)cc3)c3c2N=CN2NC(=O)CN=C32)cc1` [A0710], the “log10 of Ki in nM” value is reported as 1.068.
With `CCCN(CCC)S(=O)(=O)c1ccc(C(=O)N[C@@H](CCSC)C(N)=O)cc1` [A0860] the “log10 of Ki in nM” value was 1.301.
For `Cc1cc(=O)oc2cc(-n3cc(CSc4ccccc4)nn3)ccc12` [A1053], the “log10 of Ki in nM” value was 1.471.
With `Fc1ccc(-c2nn(-c3ccccc3)cc2-c2nc3ccccc3[nH]2)cc1` [A1367] the “log10 of Ki in nM” value was 1.813.
In the case of `Cc1nnnn1-c1ccc2c(c1)C=CS(=O)(=O)O2` [A1375], the “log10 of Ki in nM” value is reported as 1.819.
For `NS(=O)(=O)c1ccc(-n2cc(CO[C@@H]3O[C@H](COCc4ccccc4)[C@@H](OCc4ccccc4)[C@H]3OCc3ccccc3)nn2)cc1` [A1497], the “log10 of Ki in nM” value was 1.924.
With `Cc1cc(C)c(S(=O)(=O)Nc2cccc(C3C4=C(CC(C)(C)CC4=O)N(c4ccc(S(N)(=O)=O)cc4)C4=C3C(=O)CC(C)(C)C4)c2)c(C)c1` [A1535] the “log10 of Ki in nM” value was 1.954.
In the case of `O=C1NS(=O)(=O)c2cc([N+](=O)[O-])ccc21` [A1570], the “log10 of Ki in nM” value is reported as 1.981.

Target: T1, CA IX
Assay: not given
Settings: experimental pKi towards CA IX, library compounds; ref ChEMB database (ID A), BindingDB (ID B); cited from earlier work
For `CC(=O)Nc1ccc(S(=O)(=O)NC[C@H](C)F)cc1` [B0810], the “log10 of Ki in nM” value is given as 3.643.

Same assay, conditions: library compounds (IDs A…, B…), observed Ki towards CA IX; ref ChEMBL and BindingDB; read-out: Ki; cited from earlier work
In the case of `COc1ccc(/C=C\C(=O)C[C@H]2O[C@H](COC(C)=O)[C@@H](OC(C)=O)[C@@H](OC(C)=O)[C@@H]2OC(C)=O)cc1OC` [B0756], the Ki is listed as 753 nM.

Same assay, conditions: library compounds (IDs A…, B…); values equal log10 of Ki in nM; ref ChEMBL and BindingDB; cited from earlier work
For `COc1ccc(/C=C\C(=O)C[C@H]2O[C@H](COC(C)=O)[C@@H](OC(C)=O)[C@@H](OC(C)=O)[C@@H]2OC(C)=O)cc1OC` [B0756], the “log10 of Ki in nM” value is given as 2.877.
In the case of `CC1=CC(C)C=C(C)N1CCc1ccccc1C` [B0765], the “log10 of Ki in nM” value is listed as 2.919.

Same assay, conditions: observed Ki of library compounds (IDs A…, B…); ref ChEMBL and BindingDB; read-out: Ki; cited from earlier work
In the case of `CC1=CC(C)C=C(C)N1CCc1ccccc1C` [B0765], the Ki is given as 830 nM.

Same assay, conditions: observed Ki towards CA IX, library compounds; ref ChEMB database (ID A), BindingDB (ID B); read-out: Ki; cited from earlier work
In the case of `CC(=O)Nc1ccc(S(=O)(=O)NC[C@H](C)F)cc1` [B0810], the Ki is listed as 4400 nM.
